Patent publication US8658605B2, “Bioactivity composition of Reevesia formosana” (priority 2011, dated 2014)

What was measured:
[1] = tested on: MCF-7 (human breast adenocarcinoma); experiment: MTS reduction assay, cytotoxicity on MCF-7 cells; type: cell-based; details: average of three repeats
Protocol: (§1) MCF-7 (human breast adenocarcinoma), NCI-H460 (non-small-cell lung cancer) and HepG2 (liver hepatocellular cells) were incubated in a modified Dulbecco's Eagle's medium with 10% FBS and nonessential amino acid ([…], Inc) in an incubator with 37° C., 5% CO2/Air. Human cancer cell lines were planted in 96-well plates, and each well which contained the 100 μl medium were planted one of MCF-7 and NCI-H460 with a cell amount of 6500, 2500 and 7500. After overnight incubation, each cell line was administered at least 8 testing compounds with different concentrations individually, and subsequently the cell lines were incubated in the incubator for 72 hours. According to a method of MTS reduction assay, 5-(3-carboxymethoxyphenyl)-2-(4,5-dimethylthiazoyl)-3-(4-sulfophenyl)tetrazolium salt (MTS) was applied on estimating alive cell numbers, and 0.1% DMSO (Promega, Madison, Wis., USA) was a control group because DMSO controlled a result of percentage, the result could be a dose-response curve of IC50 value. […] The IC50 value was an average of three times repeats. The 10000/well HepG2 cells were planted on a 96-well plate and were gone through the same experiences.

[2] = tested on: NCI-H460 (non-small-cell lung cancer); experiment: MTS reduction assay, cytotoxicity on NCI-H460 cells; type: cell-based, human; details: NCI-H460, 72 hours, average of three repeats
Protocol: as §1

[3] = tested on: HepG2 (liver hepatocellular cells); experiment: MTS reduction assay, cytotoxicity on HepG2 cells; type: cell-based, human; details: HepG2, 72 hours, average of three repeats
Protocol: as §1

Compound	IC50 ([1]; MCF-7, 72 hours) [nM]	IC50 [2] [nM]	IC50 [3] [nM]	IC50 ([1]; Homo sapiens, MCF7, MCF-7, 72 hours) [nM]	IC50 ([2]; Homo sapiens) [nM]	IC50 ([3]; Homo sapiens) [nM]
reevesioside C [reevesioside C (3)]	2040 ± 173	208 ± 15.6	3740 ± 261	–	–	–
reevesioside B [reevesioside B (2)]	3520 ± 72	431 ± 45.1	4760 ± 202	–	–	–
COc1cc2c3c(c4cc(OC)c(OC)cc4c2cc1OC)CN1CCC[C@@H]1C3 [tylophorine, reference compound]	–	–	–	236 ± 11	233 ± 24	215 ± 14
reevesioside D [reevesioside D (4)]	36400 ± 2580	3900 ± 316	> 500000	–	–	–
reevesioside F [reevesioside F (6)]	72 ± 8.1	20.3 ± 0.4	836 ± 33.2	–	–	–
reevesioside E [reevesioside E (5)]	11800 ± 2240	1770 ± 35.4	40500 ± 6430	–	–	–
C[C@@H]1C[C@H]2OCO[C@H]2[C@H](O[C@H]2CC[C@]3(C=O)[C@H]4CC[C@]5(C)[C@@H](C6=CC(=O)OC6)CC[C@]5(O)[C@@H]4CC[C@]3(O)C2)O1 [reevesioside A (1), reevesioside A]	63.2 ± 2.1	19.3 ± 0.5	368 ± 29.9	–	–	–
COC1C(OC2CCC3(C=O)C4CCC5(C)C(C6=CC(=O)OC6)CCC5(O)C4CCC3(O)C2)OC(C)C(O)C1O (stereo not drawn) [epi-reevesioside F (7), epi-reevesioside F]	34.1 ± 5.5	10.4 ± 0.5	996 ± 92.6	–	–	–
